Test results from patent US9090600B2, “Fungicidal 4-substituted-3-{phenyl[(heterocyclylmethoxy)imino]methyl}-1,2,4-oxadizol-5(4H)-one derivatives” (BAYER INTELLECTUAL PROPERTY GMBH, priority 2011, dated 2015).
Marks after values point to notes of the source that are not given here.

Conditions: pH 2.7

Compound	LogP
C#CCCOC(=O)Nc1cccc(CO/N=C(/c2ccccc2)c2noc(=O)[nH]2)n1 [Example 22]	3.09 [a]
Cn1c(C(=NOCc2cccc(NC(=O)OCC(F)(F)F)n2)c2ccccc2)noc1=O [compound 500]	3.57 [a]
CC#CCOC(=O)Nc1cccc(CO/N=C(/c2ccccc2)c2noc(=O)n2C)n1 [compound 414]	3.42 [a]
Cn1c(/C(=N\OCc2cccc(NC(=O)OCC3COC(=O)O3)n2)c2ccccc2)noc1=O (racemic) [compound 474]	2.75 [a]
Cc1cccc(OCC(=O)Nc2nc(CO/N=C(/c3ccccc3)c3noc(=O)n3C)cs2)c1 [Example 356]	3.8 [a]
Cn1c(C(=NOCc2cccc(NC(=O)OCCOC3CCCCC3)n2)c2ccccc2)noc1=O [compound 496]	4.31 [a]
CCCCCC#CCOC(=O)Nc1cccc(CO/N=C(/c2ccccc2)c2noc(=O)n2C)n1 [compound 415]	4.86 [a]
NC(=NO)C(=NOCc1csc(N)n1)c1ccccc1Cl (mixture of isomers) [Example V-10]	0.73 [a]
Cn1c(/C(=N\OCc2cccc(NC(=O)OCCCCl)n2)c2ccccc2)noc1=O [compound 544]	3.6 [a]
Cc1cc(Cl)ccc1OCCCC(=O)Nc1cccc(CO/N=C(/c2ccccc2)c2noc(=O)n2C)n1 [Example 277]	4.73 [a]
C#CC(C)OC(=O)Nc1cccc(CO/N=C(/c2ccccc2)c2noc(=O)n2C)n1 (stereo not drawn) [Example 242]	3.41 [a]
CCC1(C(=O)Nc2cccc(CO/N=C(/c3ccccc3)c3noc(=O)n3C)n2)C(C)C1(Cl)Cl (stereo not drawn) [Example 189]	4.35 [a]
CCCCC#CCOC(=O)Nc1cccc(CO/N=C(/c2ccccc2)c2noc(=O)n2C)n1 [compound 418]	4.51 [a]
CC(Cc1ccccc1)OC(=O)Nc1cccc(CO/N=C(/c2ccccc2)c2noc(=O)n2C)n1 (stereo not drawn) [Example 60]	4.49 [a]
Cn1c(/C(=N\OCc2cccc(NC(=O)COc3ccc(Br)cc3)n2)c2ccccc2)noc1=O [Example 65]	4.2 [a]
Cn1c(/C(=N\OCc2cccc(NC(=O)OCCOCCCl)n2)c2ccccc2)noc1=O [compound 447]	3.29 [a]
Cn1c(/C(=N\OCc2cccc(NC(=O)OCCC[Si](C)(C)C)n2)c2ccccc2)noc1=O [compound 422]	5.28 [a]
CC=CCCCOC(=O)Nc1cccc(CON=C(c2ccccc2)c2noc(=O)n2C)n1 [compound 509]	4.44 [a]
Cc1cccc(C)c1OC(=O)Nc1cccc(CON=C(c2ccccc2)c2noc(=O)n2C)n1 [compound 494]	4.2 [a]
CCCCCOC(=O)Nc1nc(CO/N=C(/c2cccc(F)c2)c2noc(=O)n2C)cs1 [Example 150]	4.19 [a]
CCCOC(=S)Nc1cccc(CO/N=C(/c2ccccc2)c2noc(=O)n2C)n1 [Example 283]	4.11 [a]
Cn1c(/C(=N\OCc2cccc(NC(=O)Cc3ccc(Cl)cc3)n2)c2ccccc2)noc1=O [Example 196]	3.92 [a]
CC(C)=CCCOC(=O)Nc1cccc(CO/N=C(/c2ccccc2)c2noc(=O)n2C)n1 [compound 448]	4.39 [a]
Cn1c(/C(=N\OCc2csc(NC(=O)COCc3ccccc3)n2)c2ccccc2)noc1=O [Example 194]	3.6 [a]
COc1ccc(/C(=N/OCc2cccc(N)n2)c2noc(=O)n2C)cc1 [Example 157]	1.35 [a]

Compound	LogP
CC(OCc1ccccc1)C(=O)Nc1cccc(CO/N=C(/c2ccccc2)c2noc(=O)n2C)n1 (stereo not drawn) [Example 156]	4.15 [a]
Cn1c(/C(=N\OCc2cccc(NC(=O)OCC3CCCCO3)n2)c2ccccc2)noc1=O (stereo not drawn) [compound 433]	3.5 [a]
CC(C)(C)OC(=O)Nc1cccc(CON=C(C(N)=NO)c2ccccc2F)n1 (mixture of isomers) [Example V-5]	2.68 [a]
C=CCC#CCCOC(=O)Nc1cccc(CO/N=C(/c2ccccc2)c2noc(=O)n2C)n1 [compound 452]	4.01 [a]
Cn1c(/C(=N\OCc2cccc(NC(=O)OCC(Cl)Cl)n2)c2ccccc2)noc1=O [compound 461]	3.74 [a]
Cc1cccc(C(=NOCc2cccc(N)n2)c2noc(=O)[nH]2)c1 (mixture of isomers) [Example 121]	1.47 [a]
Cc1ccc(COC(=O)Nc2cccc(CO/N=C(/c3ccccc3)c3noc(=O)n3C)n2)cc1 [compound 546]	4.31 [a]
CCc1ccc(OC(=O)Nc2cccc(CO/N=C(/c3ccccc3)c3noc(=O)n3C)n2)cc1 [compound 478]	4.39 [a]
Cn1c(C(=NOCc2cccc(NC(=O)COc3ccccc3Br)n2)c2ccccc2)noc1=O [Example 269]	4.25 [a]
CC(C)OCCOC(=O)Nc1cccc(CO/N=C(/c2ccccc2)c2noc(=O)n2C)n1 [compound 545]	3.44 [a]
Cn1c(/C(=N\OCc2cccc(NC(=O)OCc3cccc(C#N)c3)n2)c2ccccc2)noc1=O [compound 477]	3.65 [a]
CCCCCCN(C(=O)OC(C)(C)C)c1cccc(CO/N=C(/c2cccc(C)c2)c2noc(=O)n2C)n1 [compound 299]	6.57 [a]
Cc1ccc(C(=NOCc2csc(NC(=O)OC3CCCCC3)n2)c2noc(=O)n2C)cc1 [Example 339]	4.48 [a]
Cn1c(/C(=N\OCc2csc(NC(=O)Cc3ccccc3)n2)c2cccc(F)c2)noc1=O [Example 203]	3.46 [a]
CC(OC(=O)Nc1cccc(CO/N=C(/c2ccccc2)c2noc(=O)n2C)n1)C(C)(C)C (stereo not drawn) [Example 305]	4.56 [a]
CCCc1ccccc1OC(=O)Nc1cccc(CO/N=C(/c2ccccc2)c2noc(=O)n2C)n1 [compound 426]	4.54 [a]
CC(Oc1ccccc1)C(=O)Nc1nc(CO/N=C(/c2cccc(F)c2)c2noc(=O)n2C)cs1 (stereo not drawn) [Example 338]	3.76 [a]
Cn1c(/C(=N\OCc2cccc(NC(=O)OCCc3ccc(Br)cc3)n2)c2ccccc2)noc1=O [Example 238]	4.63 [a]
CCCC=CCOC(=O)Nc1cccc(CON=C(c2ccccc2)c2noc(=O)n2C)n1 [compound 507]	4.56 [a]
CC(Oc1ccccc1Br)C(=O)Nc1cccc(CO/N=C(/c2ccccc2)c2noc(=O)n2C)n1 (stereo not drawn) [Example 275]	4.53 [a]
Cn1c(/C(=N\OCc2cccc(NC(=O)OCCBr)n2)c2ccccc2)noc1=O [compound 459]	3.42 [a]
CCOCCOCCOC(=O)Nc1cccc(CO/N=C(/c2ccccc2)c2noc(=O)n2C)n1 [compound 439]	3.13 [a]
Cn1c(/C(=N\OCc2csc(NC(=O)C3COc4ccccc4O3)n2)c2ccccc2Cl)noc1=O (stereo not drawn) [Example 442]	3.73 [a]
CCCCCC(=O)Nc1nc(CO/N=C(/c2ccccc2Cl)c2noc(=O)n2C)cs1 [Example 538]	3.89 [a]
CC(C)(C)OC(=O)Nc1cccc(CO/N=C(\c2noc(=O)[nH]2)c2ccccc2F)n1 [Example 193]	3.68 [a]

Compound	LogP
Cn1c(/C(=N\OCc2csc(NC(=O)Cc3ccccc3)n2)c2ccccc2Cl)noc1=O [Example 543]	3.51 [a]
Cn1c(/C(=N\OCc2csc(NC(=O)C(F)(F)Oc3ccccc3)n2)c2ccccc2)noc1=O [Example 220]	3.89 [a]
Cn1c(/C(=N\OCc2cccc(NC(=O)OCC(Cl)(Cl)Cl)n2)c2ccccc2)noc1=O [compound 536]	4.15 [a]
COC(=O)C(C)(C)COC(=O)Nc1cccc(CON=C(c2ccccc2)c2noc(=O)n2C)n1 [compound 489]	3.65 [a]
Cc1cc(C)cc(COC(=O)Nc2cccc(CON=C(c3ccccc3)c3noc(=O)n3C)n2)c1 [compound 498]	4.68 [a]
Nc1cccc(CON=C(c2ccccc2)c2noc(=O)[nH]2)n1 (mixture of isomers) [Example 96]	1.2 [a]
CC(Oc1ccc(Cl)cc1)C(=O)Nc1cccc(CON=C(c2ccccc2)c2noc(=O)n2C)n1 (stereo not drawn) [Example 260]	4.35 [a]
C#CCCOC(=O)Nc1cccc(CO/N=C(/c2ccccc2F)c2noc(=O)n2C)n1 [Example 525]	3.21 [a]
Cn1c(/C(=N\OCc2cccc(NC(=O)OCc3ccccc3Cl)n2)c2ccccc2)noc1=O [compound 413]	4.34 [a]
CCCCCCCOC(=O)Nc1cccc(CO/N=C(/c2ccccc2)c2noc(=O)n2C)n1 [compound 419]	5.25 [a]
COC(C)(C)CCOC(=O)Nc1cccc(CO/N=C(/c2ccccc2)c2noc(=O)n2C)n1 [compound 457]	3.59 [a]
COc1cccc(/C(=N/OCc2cccc(NC(=O)OC(C)CC(C)C)n2)c2noc(=O)n2C)c1 (stereo not drawn) [Example 149]	4.72 [a]
CC(Oc1ccc(Br)cc1)C(=O)Nc1cccc(CO/N=C(/c2ccccc2)c2noc(=O)n2C)n1 (stereo not drawn) [Example 204]	4.46 [a]
Cn1c(/C(=N/OCc2cccc(N)n2)c2cccc(F)c2F)noc1=O [Example 416]	1.26 [a]
CCCCOC(=O)Nc1nc(CO/N=C(/c2ccccc2Cl)c2noc(=O)n2C)cs1 [Example 519]	3.85 [a]
Cc1cccc(C(=NOCc2cccc(N)n2)C(N)=NO)c1 (mixture of isomers) [Example V-7]	0.75 [a]
CCC#CCOC(=O)Nc1cccc(CON=C(c2ccccc2)c2noc(=O)n2C)n1 [compound 503]	3.78 [a]
CC(C)c1cccc(OC(=O)Nc2cccc(CO/N=C(/c3ccccc3)c3noc(=O)n3C)n2)c1 [compound 553]	4.64 [a]
Cc1ccccc1OC(C)C(=O)Nc1cccc(CO/N=C(/c2ccccc2)c2noc(=O)n2C)n1 (stereo not drawn) [Example 398]	4.46 [a]
C#CCCOC(=O)Nc1nc(CON=C(c2ccccc2Cl)c2noc(=O)n2C)cs1 [Example 499]	3.19 [a]
CCCCC(=O)Nc1nc(CO/N=C(/c2cccc(F)c2)c2noc(=O)n2C)cs1 [Example 370]	3.48 [a]
Cn1c(/C(=N\OCc2cccc(NC(=O)OC3CCCCC3)n2)c2cccc(F)c2F)noc1=O [Example 417]	4.46 [a]
CC#CCCOC(=O)Nc1cccc(CO/N=C(/c2ccccc2)c2noc(=O)n2C)n1 [compound 548]	3.58 [a]
CC(Oc1cccc(Br)c1)C(=O)Nc1cccc(CO/N=C(/c2ccccc2)c2noc(=O)n2C)n1 (stereo not drawn) [Example 179]	4.46 [a]
Nc1cccc(CON=C(c2cccc(F)c2)c2noc(=O)[nH]2)n1 [Example 129]	1.35 [a]
